Reference: patent publication US5354772A, “Indole analogs of mevalonolactone and derivatives thereof” (Sandoz Pharm. Corp., priority 1993, dated 1994)
Read-outs that look alike come from different tables or passages of the source.

Key:
HMG-CoA reductase = molecular target: T1, HMG-CoA reductase (Rattus norvegicus, UniProt P51639); test: Test A. In Vitro Microsomal Assay of HMG-CoA Reductase Inhibition; assay type: biochemical; conditions: rat liver microsomes, male Sprague-Dawley rats; read-out: IC50 (50% inhibition of HMG-CoA reductase activity)
T1 construct: the microsomes are the source of the HMG-CoA reductase enzyme; from tissue; host or cells: liver microsomes, male Sprague-Dawley rats (150-225 g)
T1 sequence (P51639 1-887): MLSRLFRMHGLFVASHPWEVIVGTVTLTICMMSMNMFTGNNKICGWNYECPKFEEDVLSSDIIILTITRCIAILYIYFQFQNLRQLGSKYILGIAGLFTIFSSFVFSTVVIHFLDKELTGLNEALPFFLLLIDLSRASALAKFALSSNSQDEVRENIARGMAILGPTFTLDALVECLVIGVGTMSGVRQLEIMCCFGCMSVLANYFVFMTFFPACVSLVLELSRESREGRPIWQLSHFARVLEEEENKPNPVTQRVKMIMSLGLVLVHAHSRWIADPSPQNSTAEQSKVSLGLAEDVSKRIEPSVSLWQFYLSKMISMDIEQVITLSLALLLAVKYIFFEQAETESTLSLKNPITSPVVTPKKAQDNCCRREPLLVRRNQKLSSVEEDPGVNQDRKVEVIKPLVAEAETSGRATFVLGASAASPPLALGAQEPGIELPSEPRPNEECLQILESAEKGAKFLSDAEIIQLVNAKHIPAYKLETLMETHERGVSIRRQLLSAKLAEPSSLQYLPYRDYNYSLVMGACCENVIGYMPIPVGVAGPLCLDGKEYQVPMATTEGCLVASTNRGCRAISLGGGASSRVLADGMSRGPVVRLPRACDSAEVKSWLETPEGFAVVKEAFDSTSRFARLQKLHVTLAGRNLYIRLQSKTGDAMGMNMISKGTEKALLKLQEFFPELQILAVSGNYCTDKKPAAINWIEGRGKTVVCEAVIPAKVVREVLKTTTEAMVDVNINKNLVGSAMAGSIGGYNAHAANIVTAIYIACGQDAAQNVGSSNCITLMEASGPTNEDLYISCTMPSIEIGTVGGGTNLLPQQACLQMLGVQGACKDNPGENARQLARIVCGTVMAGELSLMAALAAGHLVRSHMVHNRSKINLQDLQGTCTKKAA
Procedure: Test A. In Vitro Microsomal Assay of HMG-CoA Reductase Inhibition:
200 μl. aliquots (1.08-1.50 mg./ml.) of rat liver microsomal suspensions, freshly prepared from male Sprague-Dawley rats (150-225 g. body weight), in Buffer A with 10 mmol. dithiothreitol are incubated with 10 μl. of a solution of the test substance in dimethylacetamide and assayed for HMG-CoA reductase activity as described in Ackerman et al., J. Lipid Res. 18, 408-413 (1977). In the assay the microsomes are the source of the HMG-CoA reductase enzyme which catalyzes the reduction of HMG-CoA to mevalonate. The assay employs a chloroform extraction to separate the product, [^14 C]mevalonolactone, formed by the HMG-CoA reductase reaction from the substrate, [^14 C]HMG-CoA. [^3 H]mevalonolactoneis added as an internal reference. Inhibition of HMG-CoA reductase is calculated from the decrease in specific activity [^14 C/^3 H]mevalonate) of test groups compared to controls.
IC50 is the concentration of the test substance in the assay system
calculated to produce a 50% inhibition of HMG-CoA reductase activity (Test
A) or sterol biosynthesis (Test B) .

[1] = test system: Fu5AH rat hepatoma cell line; test: Test B. In Vitro Cell Culture Cholesterol Biosynthesis Screen; assay type: cell-based; conditions: Fu5AH cells, 3 hours; for IC50: [14C]acetate incorporation, read-out: IC50 (50% inhibition of sterol biosynthesis)
Procedure: The cell culture is prepared as follows: Stock monolayer cultures of the Fu5AH rat hepatoma cell line (originally obtained from G. Rothblat; see Rothblat, Lipids 9, 526-535 (1974)) are routinely maintained in Eagle's Minimum Essential Medium (EMEM) supplemented with 10% fetal bovine serum (FBS) in 75 cm.^2 tissue culture flasks. For these studies, when the cultures reach confluence, they are removed by mild enzymatic treatment with 0.25% trypsin in Hanks' balanced salt solution (without calcium and magnesium). After centrifugation of the cell suspension and aspiration of the enzymatic solution, the cell pellet is resuspended in an appropriate volume of media for seeding into 60 mm. tissue culture dishes. The cultures are incubated at 37° C. in an atmosphere of high humidity and 5% carbon dioxide. When the cultures are confluent (approximately 5 days), they are ready for use. The culture media is aspirated from the dishes and replaced with 3 ml. of EMEM supplemented with 5 mg./ml. of delipidized serum protein (DLSP) prepared by the method of Rothblat et al., In Vitro 12, 554-557 (1976). […] Enhanced 3-hydroxy-3-methylglutaryl Coenzyme A reductase (HMG-CoA reductase) activity is measurable in the cells in response to the lack of exogenous sterol. Following approximately 24 hours incubation at 37° C. in the DLSP supplemented media, the assay is initiated by the addition of 3 μCi of [^14 C]acetate and the test substance solubilized in dimethylsulfoxide (DMSO) or distilled water. Solvent controls and compactin-treated controls are always prepared. Triplicate 60 mm. tissue culture dishes are run for each group. After 3 hours incubation at 37° C., the cultures are examined microscopically using an inverted phase contrast microscope. Notations are made of any morphological changes which may have occurred in the cultures. The media is aspirated and the cell layer is gently washed twice with 0.9% sodium chloride solution (saline). The cell layer is then harvested in 3 ml. of 0.9% saline by gentle scraping with a rubber policeman and transferred to a clean glass tube with Teflon lined cap. The dishes are rinsed with 3 ml. of 0.9% saline and rescraped, and the cells are combined with the first harvest. The tubes are centrifuged at 1500 r.p.m. for 10 minutes in an IEC PR-J centrifuge, and the supernatant is aspirated.
The cells are then extracted as follows: One ml. of 100% ethanol is added to the cell pellet followed by sonication for 10 seconds with a "LO" setting of 50 on a Bronwell Biosonik IV. One hundred μl. are taken for protein determination. One ml. of 15% potassium hydroxide (KOH) is added, and the samples are thoroughly vortexed. Saponification is accomplished by heating the ethanol-KOH treated samples at 60° C. for 60 minutes in a water bath. Following dilution of the samples with 2 ml. of distilled water, they are extracted three times with 7 ml. of petroleum ether. The petroleum ether extracts are then washed three times with 2 ml. of distilled water and finally taken to dryness under a stream of nitrogen.
The obtained samples are then analyzed by thin layer chromatography (TLC) as follows: Residues from the petroleum ether extraction are taken up in a small volume of hexane and spotted on silica gel 60 TLC plates (E. Merck). Development of the plates is carried out in a three phase solvent system consisting of 150 parts by volume hexane: 50 parts by volume diethyl ether: 5 parts by volume glacial acetic acid.
Visualization is accomplished in an iodine vapor chamber. The plates are divided into five sections such that each section contains the molecules having the following approximate Rf values: section 1- 0-0.4, section 2- 0.4-0.55, section 3- 0.55-0.7, section 4- 0.7-0.9 and section 5- 0.9-1.0. Section 2 contains the non-saponifiable sterols. The five sections of the TLC plates are scraped into scintillation vials.

sterol synthesis = test: Test C. In Vivo Cholesterol Biosynthesis Inhibition Test; parameters: species or system rat; conditions: for ED50: Rattus norvegicus, read-out: ED50 (inhibition of sterol synthesis)
Description: Test C. In Vivo Cholesterol Biosynthesis Inhibition Test In vivo studies utilize male Wistar Royal Hart rats weighing 150±20 g. which have been kept for 7-10 days on an altered light cycle (6:30 A.M.-6:30 P.M. dark) housed two per cage and fed powdered Purina Rat Chow and water ad libitum. […] Controls receive vehicle alone. […] Two hours after mid-dark, blood samples are obtained under sodium hexobarbitol anesthesia and the serum separated by centrifugation. […] Inhibition of sterol synthesis is calculated from the reduction in the nCi of sterols formed from test groups compared to controls.

[2] = male Wistar Royal Hart rats, serum [14C] sterols

Row | SMILES | IC50 (HMG-CoA reductase) [µM] | IC50 [1] [µM] | ED50 (sterol synthesis; [2]) [mg/kg] | further results
1 | CC(C)n1c(/C=C/[C@@H](O)C[C@@H](O)CC(=O)O)c(-c2ccc(F)cc2)c2ccccc21 (relative stereo) [Example 8, Sodium erythro-(±)-(E)-3,5-dihydroxy-7-[3'-(4"-fluorophenyl)-1'-(1"-methylethyl)indol-2'-yl]hept-6-enoate] |  | 0.05 |  | ED50 (sterol synthesis): 0.09 mg/kg
2 | CC(C)n1c(/C=C/[C@H](O)C[C@@H](O)CC(=O)O)c(-c2ccc(F)cc2)c2ccccc21 (relative stereo) [Example 9, Sodium threo-(±)-(E)-3,5-dihydroxy-7-[3'-(4"-fluorophenyl)-1'-(1"-methylethyl)indol-2'-yl]hept-6-enoate] |  | 0.22 |  | ED50 (sterol synthesis): 1.4 mg/kg
3 | Cc1cc(C)cc(-c2c(/C=C/[C@@H](O)C[C@@H](O)CC(=O)O)n(C(C)C)c3ccccc23)c1 (relative stereo) [Example 14D, Sodium erythro-(±)-(E)-3,5-dihydroxy-7-[3'-(3",5"-dimethylphenyl)-1'-(1"-methylethyl)indol-2'-yl]hept-6-enoate] | 0.005 |  | 0.16 | 
4 | Cc1cc(C)c2c(-c3ccc(F)cc3)c(/C=C/[C@@H](O)C[C@@H](O)CC(=O)O)n(C(C)C)c2c1 (relative stereo) [Example 64] | 0.012 | 0.03 | 0.66 | 
5 | Cn1c(CC[C@@H]2C[C@@H](O)CC(=O)O2)c(-c2ccc(F)cc2)c2ccccc21 (relative stereo) [Example 89] | 9.3 |  |  | 
6 | Cn1c(/C=C/[C@H]2C[C@@H](O)CC(=O)O2)c(-c2ccc(F)cc2)c2cccc(OCc3ccccc3)c21 (relative stereo) [Example 102] | > 1000 |  |  | 
7 | CCn1c(/C=C/[C@H]2C[C@@H](O)CC(=O)O2)c(-c2ccc(F)cc2)c2ccccc21 (relative stereo) [Example 111] |  | 0.19 |  | 
8 | Cc1cc(-c2c(/C=C/[C@H]3C[C@@H](O)CC(=O)O3)n(C(C)C)c3ccccc23)ccc1F (relative stereo) [Example 113] | 0.03 |  | 0.51 | 
9 | Cc1c(/C=C/[C@@H]2C[C@@H](O)CC(=O)O2)n(-c2ccccc2)c2ccccc12 (relative stereo) [Example 142] | 1.3 | 1.5 | 6.1 | 
10 | CC[C@H](C)C(=O)O[C@H]1CCC=C2C=C[C@H](C)[C@H](CC[C@@H]3C[C@@H](O)CC(=O)O3)[C@H]21 [Compactin, reference compound] | 0.77 | 0.06 | 3.5 | 
11 | Cn1c(/C=C/C2CC(O)CC(=O)O2)c(-c2ccc(F)cc2)c2ccccc21 (stereo not drawn) [Example 3, (E)-6-[2'-[3"-(4'"-Fluorophenyl)-1"-methylindol-2"-yl]ethenyl]-4-hydroxy-3,4,5,6-tetrahydro-2H-pyran-2-one] | 1.66 | 0.8 | > 10 | 
12 | Cn1c(/C=C/[C@@H]2C[C@@H](O)CC(=O)O2)c(-c2ccc(F)cc2)c2ccccc21 [Example 10, (E)-Trans-6S-[2'-[3"-(4'"-fluorophenyl)-1"-methylindol-2"-yl]ethenyl]-4R-hydroxy-3,4,5,6-tetrahydro-2H-pyran-2-one] | 1.7 | 0.42 |  | percentage change of sterol synthesis (sterol synthesis; at 4 mg./kg., male Wistar Royal Hart rats): -47%
13 | Cn1c(/C=C/C(O)CC(O)CC(=O)O)c(-c2ccc(F)cc2)c2ccc(OCc3ccccc3)cc21 (stereo not drawn) [Example 23] | 0.09 | 0.6 |  | 
14 | CCOC(=O)CC(O)CC(O)/C=C/c1c(-c2ccc(F)cc2)c2cc(Cl)ccc2n1C (stereo not drawn) [Example 43] | 9.6 | 0.74 |  | 
15 | CCOC(=O)CC(O)CC(O)/C=C/c1c(C)c2ccccc2n1-c1ccccc1 (stereo not drawn) [Example 132] | 1.62 |  |  | inhibition at 10 µM ([1]; at 10 μmolar, read-out: percentage change (%Δ) of sterol biosynthesis): 71%; percentage change of sterol synthesis (sterol synthesis; at 10 mg./kg., male Wistar Royal Hart rats): -35%
16 | CCC(C)C(=O)OC1CC(C)C=C2C=CC(C)C(CCC3CC(O)CC(=O)O3)C21 (stereo not drawn) [Mevinolin, reference compound] |  |  |  | ED50 (sterol synthesis): 0.41 mg/kg

Now from value to molecule, other results behind:

Row | IC50 (HMG-CoA reductase) [µM] | IC50 [1] [µM] | SMILES | ED50 (sterol synthesis; [2]) [mg/kg] | further results
17 | 3 | 0.62 | Cn1c(/C=C/[C@@H]2C[C@@H](O)CC(=O)O2)c(-c2ccc(F)cc2)c2ccccc21 (relative stereo) [Example 4 (a), (E)-Trans-6-[2'-[3"-(4'"-fluorophenyl)-1"-methylindol-2"-yl]ethenyl]-4-hydroxy-3,4,5,6-tetrahydro-2H-pyran-2-one] | 7 | 
18 | 464 |  | Cn1c(/C=C/[C@H](O)C[C@@H](O)CC(=O)O)c(-c2ccc(F)cc2)c2cccc(OCc3ccccc3)c21 (relative stereo) [Example 54] |  | 
19 | 1.7 | 0.8 | COC(=O)CC(O)CC(O)/C=C/c1c(-c2ccc(F)cc2)c2ccccc2n1C (stereo not drawn) [Example 1, Methyl (E)-3,5-dihydroxy-7-[3'-(4"-fluorophenyl)-1'-methylindol-2'-yl]hept-6-enoate] | 6.2 | 
20 | 9.1 |  | Cn1c(/C=C\[C@@H]2C[C@@H](O)CC(=O)O2)c(-c2ccc(F)cc2)c2ccccc21 [Example 12, (Z)-Trans-6S-[2'-[3"-(4'"-fluorophenyl)-1"-methylindol-2"-yl]ethenyl]-4R-hydroxy-3,4,5,6-tetrahydro-2H-pyran-2-one] |  | inhibition at 1 µM ([1]; at 1 μmolar, read-out: percentage change (%Δ) of sterol biosynthesis): 16%
21 |  | 0.2 | CCOC(=O)CC(O)CC(O)/C=C/c1c(-c2ccc(F)cc2)c2ccc(OCc3ccccc3)cc2n1C (stereo not drawn) [Example 21] | 12.1 | 
22 | 0.12 |  | CCOC(=O)CC(O)CC(O)/C=C/c1c(-c2ccc(F)cc2)c2ccccc2n1CC (stereo not drawn) [Example 60] | 0.87 | 
23 | 0.0054 |  | CCOC(=O)CC(O)CC(O)/C=C/c1c(-c2ccc(F)cc2)c2ccc(OCc3ccccc3)cc2n1C(C)C (stereo not drawn) [Example 75] |  | 
